Assay results taken from PMC8453635, “Piperidine Azasugars Bearing Lipophilic Chains: Stereoselective Synthesis and Biological Activity as Inhibitors of Glucocerebrosidase (GCase)” (The Journal of Organic Chemistry, 2021).

biological target: T1, α-fucosidase (Homo sapiens, UniProt P04066); experiment: Human lysosomal glycosidase selectivity screening (leukocyte homogenate); assay type: biochemical; conditions: 1 mM, read-out: percentage of inhibition, α-Fuco
T1 construct: from leukocytes isolated from healthy donors (controls); from tissue; host or cells: leukocytes from healthy donors, sonicated homogenate
T1 sequence (P04066 32-466): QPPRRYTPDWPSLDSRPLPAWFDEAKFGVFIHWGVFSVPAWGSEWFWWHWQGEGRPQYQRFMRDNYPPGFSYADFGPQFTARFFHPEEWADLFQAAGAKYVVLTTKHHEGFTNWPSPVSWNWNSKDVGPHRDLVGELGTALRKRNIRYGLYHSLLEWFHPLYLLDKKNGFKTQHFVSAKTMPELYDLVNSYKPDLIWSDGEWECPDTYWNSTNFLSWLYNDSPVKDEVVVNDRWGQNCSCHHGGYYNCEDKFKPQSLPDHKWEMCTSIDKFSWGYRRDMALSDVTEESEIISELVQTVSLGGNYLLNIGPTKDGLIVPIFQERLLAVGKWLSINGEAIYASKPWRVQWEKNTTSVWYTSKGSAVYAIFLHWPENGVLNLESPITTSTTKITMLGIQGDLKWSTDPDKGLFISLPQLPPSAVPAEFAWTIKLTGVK
Method: In order to avoid undesired inhibitory side effects of a potential new drug, it has to be selective for a given target. The selectivity of the newly synthesized compounds 14, 15, and 33·HCl toward GCase was then investigated, evaluating their inhibition at 1 mM concentration toward six other lysosomal glycosidases (namely, α-and β-mannosidases, α- and β-galactosidases, α-fucosidase, and α-glucosidase) in cell homogenates (leucocytes or lymphocytes) isolated from healthy donors. […] Indeed, only moderate inhibitory activity (ca. 50%) was found toward human β-galactosidase for both piperidines 14 and 15, while negligible inhibitory activity was detected in all other cases.
The effect of 1 mM concentration of 14, 15, and 33·HCl was assayed toward six lysosomal glycosidases other than GCase, namely, α-mannosidase, β-mannosidase, α-galactosidase, β-galactosidase, α-fucosidase from leukocytes isolated from healthy donors (controls) and α-glucosidase from lymphocytes isolated from healthy donors’ flesh blood (controls). Isolated leukocytes or lymphocytes were disrupted by sonication, and a micro BCA protein assay kit (Sigma-Aldrich) was used to determine the total protein amount for the enzymatic assay, according to the manufacturer’s instructions (for more details, see the Supporting Information section). […]
α-Fucosidase activity was measured in a flat -bottomed 96 -well plate. […] The reaction was stopped by addition of sodium carbonate (200 μL; 0.5M, pH 10.7) containing Triton X -100 (0.0 025 %), and the fluorescence 4 -methylumbelliferone released by α- fucosidase activity was measured in SpectraMax M2 microplate reader ( λex=365 nm, λem=435 nm; Molecular Devices). […]
α-Glucosidase activity was measured in a flat –bottomed 96 well plate. […] The reaction was stopped by the addition of a solution of sodium carbonate (200 µL; 0.5M, pH 10.7) containing Triton X -100 (0.0025 %), and the fluorescence of 4 -methylumbelliferone released by α-glucosidase activity was measured in […]
Figure S 48. […] The corresponding calculated percentage of inhibition is indicated above each bar.

Point of comparison: `CCCCCCCC[C@@H]1[C@@H](O)[C@H](O)[C@H](O)CN1C(CCCCCCC)CCCCCCC.Cl` [compound 33·HCl, (2R,3R,4R,5R)-2-Octyl-1-(pentadecan-8-yl)-piperidine-3,4,5-triol Hydrochloride], inhibition at 1000 µM 5%. Against it:
- CCCCCCCC[C@H]1[C@@H](O)[C@H](O)[C@H](O)CN1CCCCCCCC [compound 14, (2S,3R,4R,5R)-1,2-Dioctylpiperidine-3,4,5-triol] — higher, 25%
- CCCCCCCC[C@@H]1[C@@H](O)[C@H](O)[C@H](O)CN1CCCCCCCC [compound 15, (2R,3R,4R,5R)-1,2-Dioctylpiperidine-3,4,5-triol] — higher, 24%
